In ChEMBL document CHEMBL2046376, “Synthesis and antimicrobial activity of amide derivatives of polyether antibiotic-salinomycin” (2012):
Values after ≈ are worked out from the molar mass of the structure shown.

Columns and labels:
Type in all cases: functional
Staphylococcus aureus [1] = experiment: Antibacterial activity against hospital-acquired methicillin-resistant Staphylococcus aureus 401/10 after 18 hrs by twofold serial agar dilution technique; conditions: 401/10, 18 h
Staphylococcus aureus [2] = experiment: Antibacterial activity against hospital-acquired methicillin-sensitive Staphylococcus aureus 446/11 after 18 hrs by twofold serial agar dilution technique; conditions: 446/11, 18 h
Staphylococcus aureus [3] = experiment: Antibacterial activity against hospital-acquired methicillin-resistant Staphylococcus aureus 394/10 after 18 hrs by twofold serial agar dilution technique; conditions: 394/10, 18 h
Staphylococcus aureus [4] = experiment: Antibacterial activity against hospital-acquired methicillin-resistant Staphylococcus aureus 481/11 after 18 hrs by twofold serial agar dilution technique; conditions: 481/11, 18 h
Staphylococcus aureus [5] = experiment: Antibacterial activity against hospital-acquired methicillin-resistant Staphylococcus aureus 400/10 after 18 hrs by twofold serial agar dilution technique; conditions: 400/10, 18 h
Staphylococcus aureus [6] = experiment: Antibacterial activity against hospital-acquired methicillin-resistant Staphylococcus aureus 399/10 after 18 hrs by twofold serial agar dilution technique; conditions: 399/10, 18 h
Staphylococcus aureus [7] = experiment: Antibacterial activity against hospital-acquired methicillin-sensitive Staphylococcus aureus 443/11 after 18 hrs by twofold serial agar dilution technique; conditions: 443/11, 18 h
Staphylococcus aureus [8] = experiment: Antibacterial activity against hospital-acquired methicillin-sensitive Staphylococcus aureus 448/11 after 18 hrs by twofold serial agar dilution technique; conditions: 448/11, 18 h
Staphylococcus aureus [9] = experiment: Antibacterial activity against hospital-acquired methicillin-sensitive Staphylococcus aureus 440/11 after 18 hrs by twofold serial agar dilution technique; conditions: 440/11, 18 h
Staphylococcus aureus [10] = experiment: Antibacterial activity against hospital-acquired methicillin-sensitive Staphylococcus aureus 444/11 after 18 hrs by twofold serial agar dilution technique; conditions: 444/11, 18 h
Staphylococcus aureus [11] = experiment: Antibacterial activity against hospital-acquired methicillin-sensitive Staphylococcus aureus 447/11 after 18 hrs by twofold serial agar dilution technique; conditions: 447/11, 18 h
Staphylococcus aureus [12] = experiment: Antibacterial activity against hospital-acquired methicillin-sensitive Staphylococcus aureus 445/11 after 18 hrs by twofold serial agar dilution technique; conditions: 445/11, 18 h
Staphylococcus aureus [13] = experiment: Antibacterial activity against hospital-acquired methicillin-resistant Staphylococcus aureus 451/11 after 18 hrs by twofold serial agar dilution technique; conditions: 451/11, 18 h
Staphylococcus aureus [14] = experiment: Antibacterial activity against hospital-acquired methicillin-sensitive Staphylococcus aureus 442/11 after 18 hrs by twofold serial agar dilution technique; conditions: 442/11, 18 h
Staphylococcus aureus [15] = experiment: Antibacterial activity against hospital-acquired methicillin-sensitive Staphylococcus aureus 449/11 after 18 hrs by twofold serial agar dilution technique; conditions: 449/11, 18 h
Staphylococcus aureus [16] = experiment: Antibacterial activity against hospital-acquired methicillin-resistant Staphylococcus aureus 452/11 after 18 hrs by twofold serial agar dilution technique; conditions: 452/11, 18 h
Staphylococcus aureus [17] = experiment: Antibacterial activity against hospital-acquired methicillin-resistant Staphylococcus aureus 450/11 after 18 hrs by twofold serial agar dilution technique; conditions: 450/11, 18 h
Staphylococcus aureus [18] = experiment: Antibacterial activity against hospital-acquired methicillin-resistant Staphylococcus aureus 482/11 after 18 hrs by twofold serial agar dilution technique; conditions: 482/11, 18 h
Staphylococcus aureus [19] = experiment: Antibacterial activity against hospital-acquired methicillin-resistant Staphylococcus aureus 393/10 after 18 hrs by twofold serial agar dilution technique; conditions: 393/10, 18 h
Staphylococcus aureus [20] = experiment: Antibacterial activity against hospital-acquired methicillin-sensitive Staphylococcus aureus 441/11 after 18 hrs by twofold serial agar dilution technique; conditions: 441/11, 18 h

Compound: CC[C@@]1([C@@H]2O[C@@H]([C@H]3O[C@@](O)(CO)[C@H](C)C[C@@H]3C)C[C@@H]2C)CC[C@H]([C@]2(C)CC[C@]3(C[C@H](O)[C@@H](C)[C@@H]([C@@H](C)[C@@H](OC)[C@H](C)C(=O)O)O3)O2)O1 [MONENSIN]
- MIC (Staphylococcus aureus [1]): 2 µg/mL (≈ 2.98 µM)
- MIC (Staphylococcus aureus [2]): 2 µg/mL (≈ 2.98 µM)
- MIC (Staphylococcus aureus [3]): 4 µg/mL (≈ 5.96 µM)
- MIC (Staphylococcus aureus [4]): 2 µg/mL (≈ 2.98 µM)
- MIC (Staphylococcus aureus [5]): 2 µg/mL (≈ 2.98 µM)
- MIC (Staphylococcus aureus [6]): 2 µg/mL (≈ 2.98 µM)
- MIC (Staphylococcus aureus [7]): 4 µg/mL (≈ 5.96 µM)
- MIC (Staphylococcus aureus [8]): 2 µg/mL (≈ 2.98 µM)
- MIC (Staphylococcus aureus [9]): 2 µg/mL (≈ 2.98 µM)
- MIC (Staphylococcus aureus [10]): 4 µg/mL (≈ 5.96 µM)
- MIC (Staphylococcus aureus [11]): 2 µg/mL (≈ 2.98 µM)
- MIC (Staphylococcus aureus [12]): 2 µg/mL (≈ 2.98 µM)
- MIC (Staphylococcus aureus [13]): 4 µg/mL (≈ 5.96 µM)
- MIC (Staphylococcus aureus [14]): 2 µg/mL (≈ 2.98 µM)
- MIC (Staphylococcus aureus [15]): 2 µg/mL (≈ 2.98 µM)
- MIC (Staphylococcus aureus [16]): 2 µg/mL (≈ 2.98 µM)
- MIC (Staphylococcus aureus [17]): 2 µg/mL (≈ 2.98 µM)
- MIC (Staphylococcus aureus [18]): 2 µg/mL (≈ 2.98 µM)
- MIC (Staphylococcus aureus [19]): 4 µg/mL (≈ 5.96 µM)
- MIC (Staphylococcus aureus [20]): 4 µg/mL (≈ 5.96 µM)
